We go through 4 molecules from PMC12183619, “A Phase 1 Safety Study of Evexomostat (SDX-7320) in Patients with Late-Stage Cancer: An Antiangiogenic, Insulin-Sensitizing Drug Conjugate Targeting METAP2” (Cancer Research Communications, 2025).

One data set has as its system METAP2. The arrangement: method as in PMID 16525646, PMID 9177176, PMID 10574784. The settings on record: inactivates aminopeptidase activity; cited from earlier work.
The nature of data set [1]: Plasma pharmacokinetics by LC/MS-MS after subcutaneous dosing. In kind it is in vivo, human. Here is the method:
Blood samples were collected to enable PK bioanalyses at the following timepoints: cycles 1, 3, and 6: predose, 3, 6, 24, 48, and 96 hours after dosing, and days 8 (predose on the Q7D schedule), 15 (predose) and 22 (predose on the Q7D schedule); cycles 2, 4, 5, 7, and beyond: days 1 (predose), 8 (predose on the Q7D schedule), 15 (predose), and 22 (predose on the Q7D schedule). PK samples were collected on day 1 (predose, 3, 6, and 24 hours) for cycle 1 and then predose days 1 and 15 for even cycles and predose for odd cycles thereafter. Analysis of exploratory biomarkers was conducted using commercially available ELISA kits.
The levels of the released small-molecule METAP2 inhibitor SDX-7539 in plasma were measured using a validated LC/MS-MS method with a lower limit of quantification (LLOQ) of 10.0 pg/mL. The levels of the polymer–drug conjugate evexomostat in plasma were measured using a fit-for-purpose LC/MS-MS method. Target engagement was assessed at various times postdose in lysed whole blood using a validated ELISA designed to measure uninhibited METAP2 ([25]).
Analyses were conducted using SAS v 9.4 (SAS Institute) unless otherwise noted. AEs were coded in MedDRA v18.1 and analyzed by system organ class/preferred term. Treatment-related AEs (TRAE) were tabulated for all events occurring in two patients or more. Response was assessed using RECIST v1.1. PK analysis utilized WinNonlin v8.1 and a noncompartmental analysis approach.

In a further data set the test system is patients. The arrangement: method as in PMID 10473076, PMID 12431966. The following applies: prior clinical trials; cited from earlier work.
The test system of a further data set is VEGF-D. The arrangement: method as in PMID 17605814, PMID 24220935. The following applies: cited from earlier work.
[2] abbreviates: released active moiety after subcutaneous evexomostat.

For `CO[C@@H]1[C@H](OC(=O)/C=C/C=C/C=C/C=C/C(=O)O)CC[C@]2(CO2)[C@H]1[C@@]1(C)O[C@@H]1CC=C(C)C` [Fumagillin], the “binding to METAP2” value in the data set with METAP2 is “potently and irreversibly binds to METAP2”.
Regarding `CO[C@@H]1[C@H](OC(=O)NC2CCC(N)CC2)CC[C@]2(CO2)[C@H]1[C@@]1(C)O[C@@H]1CC=C(C)C` (some centres unmarked) [SDX-7539], in data set [1] (% change from baseline to C1D8 or C1D15), the “relationship of plasma Cmax and AUC in cycle 1 with reductions in platelets” value is “potential relationship”. Also, in data set [1] (following a single dose of evexomostat), the “time with detectable plasma levels” value came to 7 days. Further, in data set [1] (released SDX-7539 vs administered dose of SDX-7320), the “plasma exposure (Cmax, AUC0-t) vs dose” value is reported as “variability with increasing dose”. Further, in data set [1] (setting [2]), the Tmax in plasma amounted to 29 h and the “Tmax in plasma, range” value lay within 6 to 96 h.
In the case of `CO[C@@H]1[C@H](OC(=O)NC(=O)CCl)CC[C@]2(CO2)[C@H]1[C@@]1(C)O[C@@H]1CC=C(C)C` [TNP-470], in the data set with patients, the “dose-limiting CNS toxicities” value is recorded as “dose-limiting CNS toxicities were observed”.
`CCN(CC)CCNC(=O)c1c(C)[nH]c(/C=C2\C(=O)Nc3ccc(F)cc32)c1C` [sunitinib]: the “change in circulating VEGF-D” value in the data set on VEGF-D was “increase circulating VEGF-D”.
